{"source": "patent US20050261162A1", "about": "“Pharmaceutical composition for preventing and treating cancer and treating an inflammation” (priority 2001, published 2005)", "key": {"[1]": {"system": "skin tumor formation induced by DMBA and TPA", "experiment": "Two-stage mouse skin carcinogenesis model (DMBA/TPA)", "format": "in vivo, ICR mice", "text": "The chemoprotective effect of xanthorrhizol and the methanolic extract of Curcuma xanthorrhiza Roxb. against tumor formation was investigated in multistage mouse carcinogenesis induced by tumor initiator (DMBA) and tumor promoter (TPA).\nTo evaluate the inhibitory effect of xanthorrhizol and the methanolic extract of Curcuma xanthoffhiza Roxb. against tumor formation, 30 mice (6 weeks age, female) per an experimental group was used. The dorsal region of ICR mice was shaved with an electric clipper. After a topical application of 0.2 μmol DMBA in 0.2 ml acetone, mice were treated topically with xanthorrhizol or the methanolic extract of Curcuma xanthorrhiza 30 min prior to each topical application of 10 nmol TPA in 0.2 ml acetone which was continued three times weekly for 19 weeks. The negative control was treated with only 0.2 ml acetone. Tumors were counted and recorded biweekly. The results were expressed as the average number of tumors per mouse (tumor multiplicity) and the percentage of tumor-bearing mice (tumor incidence) and are shown at FIG. 3 and FIG. 4. […] FIG. 4 is a photograph representing the inhibitory effect of xanthorrhizol against tumor formation at 19 weeks."}, "quinone reductase (QR)": {"system": "quinone reductase (QR)", "experiment": "Induction of quinone reductase activity in Hepa 1c1c7 cells", "format": "cell-based, rat", "details": "48 hours, compared with the control", "experimental": "Hepa 1c1c7 cell (2.5×10^4/ml), a liver cancer cell of […], was seeded into 96 well plate and was cultured in 10% FBS-αL-MEM (Gibco BRL) at 37° C. for 24 hours in 5% CO2 of humidified air. 190 μl of fresh media and 10 μl of xanthorrhizol dissolved in 10% of DMSO was added to above culture media and it was cultured under 5% CO2 at 37° C. for 48 hours. The culture media were discarded, and after washing with PBS (phosphate buffered saline), 50 μl of reaction solution containing 0.8% digitonin and 2 mM EDTA was added to each well, and it was cultured for 10 minutes to destroy the cell. […] Then, 50 μl of 5 mM potassium phosphate (pH 7.4) solution containing 0.3 mM of dicoumarol was added to terminate the reaction and the absorbance at 595 nm was measured spectrophotometrically.\nTo assess the effect of xanthorrhizol on cell growth, protein was measured in the 2nd plate set cultured under same condition above. […] And 200 μl of 0.5% SDS was added to cell and mixed, then the absorbance at 595 nm was measured spectophotometrically.\nTo estimate the experimental result, firstly, QR specific activity of each group treated with xanthorrhizol and the control group was calculated by following equation 1. […] QR specific activity=(Absorbance change of MTT per min/Absorbance change of crystal violet)×3247 nmol/mg [Equation 1] […]"}, "HL-60 cells": {"system": "HL-60 cells", "experiment": "DNA fragmentation in HL-60 cells (agarose gel electrophoresis)", "format": "cell-based, Human", "details": "80 μM, 24 hr", "experimental": "HL-60 cells were cultured in 10% FBS-RPMI 1640 medium of 100 mm Petri dish for 2 days. The cells were treated with 0,10, 40, 80 μM of xanthorrhizol to investigate the effect of xanthorrhizol on DNA fragmentation, a biochemical marker of apoptosis. After 24 hr, the cells were collected, incubated with 500 μl of lysis buffer (1 % Triton-X 100, 50 mM Tris-HCl pH 7.4, 20 mM EDTA) for 1 hr on ice, and centrifuged. To the supernatant was added 100 μl of 1% SDS, 10 μl f TE/RNase(10 mg/ml), 50 µl of proteinase K (1 mg/ml) and the mixture was incubated at 37° C. at least for 4 hr. DNA was extracted with phenol-chloroform-isoamylalcohol (25:24:1, v/v) and precipitated at −70° C. for 1 hr after addition of 2.5 volumes of cold ethanol. DNA fragments were resolved by 1.5% agarose gel electrophoresis and visualized by staining with ethidium bromide."}, "COX-2": {"system": "COX-2", "experiment": "Inhibition of COX-2 expression induced by TPA in mouse skin (western blotting)", "format": "in vivo, ICR mice", "details": "topical pretreatment 30 min before TPA 10 nmol; skin taken 4 hr later", "experimental": "It is known that the expression of COX-2 increases in mouse skin treated with TPA. Therefore, the effect of xanthorrhizol on COX-2 expression induced by TPA was measured as follows on the basis of this fact.\nFemale ICR mice of about 5 weeks of age were purchased from the Daehan Experimental Animal Center (Seoul, Korea). Mice were kept on a 12 h light/dark cycle.\nThe dorsal region of mice was shaved with an electric clipper. 2 days later, xanthorrhizol dissolved in 0.2 ml acetone was topically applied on mouse skin followed by topical application of TPA (10 nmol) dissolved in 0.2 ml acetone after 30 min. Mice were sacrificed by cervical dislocation 4 hr later. The skin was excised and the fat was removed. Fat-free skin was immediately placed in liquid nitrogen and pulverized in mortar.\nPulverized mouse skin was lysed in 400 μl of lysis buffer [150 mM NaCl, 0.5% Triton X-100, 50 mM tris-HCl, pH 7.4, 20 mM EGTA, 1 mM DTT, 1 mM Na3VO4, protease inhibitor cocktail tablet] for 30 min on ice. Lysates were centrifuged and total protein in supernatant was quantified by Bio-Rad protein assay. Aliquots of supernatant containing 30 μg protein were boiled in SDS sample loading buffer for 5 min before electrophoresis on a 12% SDS-polyacrylamide gel. […]"}}}
{"smiles": "CC(C)=CCC[C@@H](C)c1ccc(C)c(O)c1", "note": "[xanthorrhizol]", "values": [{"measurement": "average number of skin tumors per mouse (tumor multiplicity)", "setting": "[1]; 6 μmol topical, three times per week for 19 weeks, DMBA/TPA control 15.5", "result": 4.0, "unit": "skin tumors per mouse"}, {"measurement": "percentage of tumor-bearing mice (tumor incidence)", "setting": "[1]; 6 μmol topical, three times per week for 19 weeks, all DMBA/TPA control mice had tumors", "result": 57, "unit": "%"}, {"measurement": "tumor formation", "setting": "[1]; topical application 30 min prior to each TPA, three times weekly for 19 weeks", "result": "inhibits tumor formation dose-dependently"}, {"measurement": "QR induction ratio (treated/control)", "setting": "quinone reductase (QR); 0.4 μM", "result": "about 125%"}, {"measurement": "QR induction ratio (treated/control)", "setting": "quinone reductase (QR); 50 μM", "result": "~130", "unit": "%"}, {"measurement": "DNA fragmentation", "setting": "HL-60 cells", "result": "induced"}, {"measurement": "expression of COX-2 induced by TPA", "setting": "COX-2", "result": "decreased by pretreatment with xanthorrhizol in a dose-dependent manner"}]}
